Article PMC11834790, “Pyridine indole hybrids as novel potent CYP17A1 inhibitors” (Journal of Enzyme Inhibition and Medicinal Chemistry, 2025)
“And” between values parts separate entries of the source, which are not always exact repeats. Identical values can stand only once.

Experiments:
[1] = target: T1, CYP17A1 (Homo sapiens, UniProt P05093); assay: CYP17A1 17,20-lyase activity assay in NCI-H295R cells (tritiated water release); assay type: cell-based; conditions: 4 h, DMSO = 100, read-out: CYP17A1 Lyase activity, Mean (percentage of activity remaining relative to the control)
T1 construct: immortalised human adrenal cells expressing CYP17A1 and other steroidogenic enzymes; endogenous in cells; host or cells: NCI-H295R (human adrenal cells)
T1 sequence (P05093 1-508): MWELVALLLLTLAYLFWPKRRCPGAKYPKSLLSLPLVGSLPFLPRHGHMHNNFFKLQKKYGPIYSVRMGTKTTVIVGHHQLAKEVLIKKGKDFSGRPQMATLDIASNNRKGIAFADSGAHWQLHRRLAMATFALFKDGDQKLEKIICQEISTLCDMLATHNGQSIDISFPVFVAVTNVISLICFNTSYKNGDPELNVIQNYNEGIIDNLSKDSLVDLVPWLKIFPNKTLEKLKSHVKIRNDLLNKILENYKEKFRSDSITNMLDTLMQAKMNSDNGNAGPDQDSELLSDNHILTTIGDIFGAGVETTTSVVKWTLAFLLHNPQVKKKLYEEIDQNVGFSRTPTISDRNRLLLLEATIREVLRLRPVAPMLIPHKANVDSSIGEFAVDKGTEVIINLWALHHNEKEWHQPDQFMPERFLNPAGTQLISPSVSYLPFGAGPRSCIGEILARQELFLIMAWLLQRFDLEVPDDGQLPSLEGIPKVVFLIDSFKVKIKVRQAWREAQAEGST
Method: (§1) Human adrenal NCI-H295R cells are an established model for assay of CYP17A1 activities. The NCI-H295R cells were seeded in 12-well plates at 500 000 cells per well and incubated overnight. On the following day, 10 µM of test compounds were added to the wells with fresh medium and incubated for 4 h. Abiraterone was used as a reference, and DMSO was included as a control. For assessing CYP17A1 hydroxylase activity, cells were treated with [^14C]-Progesterone at 10 000 cpm/1 µM per well. Trilostane was added prior to the test compounds and substrate to inhibit 3β-hydroxysteroid dehydrogenase activity so that a clean assay of only CYP17A1 activity could be performed[20]^,[27]^,[28]. Radiolabeled steroids were extracted from the media using a mixture of ethyl acetate and isooctane (1:1 v/v) and separated by Thin Layer Chromatography (TLC) on silica gel-coated aluminium plates (Supelco® Analytics, Sigma-Aldrich Chemie GmbH, Taufkirchen, Germany). TLC spots were visualised on a phosphor screen and detected by autoradiography using a Typhoon™ FLA-7000 PhosphorImager (GE Healthcare, Uppsala, Sweden). Radioactivity was quantified with ImageQuant™ TL analysis software (GE Healthcare Europe GmbH, Freiburg, Germany), and enzyme activity was expressed as the percentage of radioactivity incorporated into the product relative to the total radioactivity. For CYP17A1 lyase activity, cells were exposed to 50 000 cpm/1 µM [21-^3H]-17α-hydroxypregnenolone per well under similar conditions. The tritiated water release assay was used to measure the conversion of 17OH-Pregnenolone to DHEA. Steroids in the media were precipitated using a 5% activated charcoal/0.5% dextran solution. Enzyme activity was evaluated based on the water-soluble tritiated by-product formed in equimolar amounts with DHEA, with radioactivity in the aqueous phase quantified by liquid scintillation counting (MicroBeta2® Plate Counter, PerkinElmer Inc., Waltham, MA, USA). Percent inhibition was calculated relative to control samples.

[2] = target: T1, CYP17A1; assay: CYP17A1 17α-hydroxylase activity assay in NCI-H295R cells ([14C]-progesterone, TLC); assay type: cell-based; conditions: 4 h, DMSO = 100, read-out: CYP17A1 Hydroxylase activity, Mean (percentage of activity remaining relative to the control)
Method: as §1

[3] = test system: adrenal steroidogenesis in NCI-H295R cells; assay: Steroid profiling by LC-MS in NCI-H295R cells; assay type: cell-based, human; conditions: compounds at 10 µM; for Androsterone, Mean / Testosterone, Mean / Progesterone, Mean / Androstendione, Mean / 17a-Hydroxyprogesterone, Mean / DHEA, Mean / 11-Deoxycortisol, Mean / 11-Deoxycorticosterone, Mean / Pregnenolone, Mean: 1 µM pregnenolone; for Androsterone, Mean / Cortisone, Mean / DHEA-S, Mean / Dihydrotestosterone, Mean: DMSO 0; for Testosterone, Mean: DMSO 0.4785; for Progesterone, Mean: DMSO 4.814; for Androstendione, Mean: DMSO 7.577; for 17a-Hydroxyprogesterone, Mean: DMSO 9.967; for DHEA, Mean: DMSO 15.119; for 11-Deoxycortisol, Mean: DMSO 26.594; for 11-Deoxycorticosterone, Mean: DMSO 28.1555; for Pregnenolone, Mean: DMSO 2043.56; for Cortisone, Mean / DHEA-S, Mean / Dihydrotestosterone, Mean: not detected within the experimental timeframe
Method: (§2) Steroid quantification was performed using Liquid Chromatography–Mass Spectrometry (LC-MS), following established protocols to study effect of compounds on adrenal steroidogenesis. Human adrenal NCI-H295R cells were seeded in 12-well plates at 500 000 cells per well and treated with fresh growth medium containing the test compounds for 4 h. Subsequently, 1 µM pregnenolone was added and incubated for an additional 4 h. Steroids were extracted from 500 µL aliquots of cell media, separated, and quantified according to the referenced methodology.

[4] = test system: DU-145 cells; assay: Scratch (wound healing) assay; assay type: cell-based, human; conditions: DU-145, 10 µM; for Wound area, Mean (area remaining open): 24 h, DMSO 170.5; for Effect on cell migration (in words): after 24 h
Method: Human prostate cancer DU-145 cells show strong cell proliferation and therefore, are an established model for assay of antiproliferative effects of test compounds. DU-145 cells were plated in 24-well plates at 50 000 cells per well and grown until they reached 85% confluence. To inhibit cell proliferation, cells were treated with 5 µg/mL mitomycin for 2 h. A wound was created using a 10 µL pipette tip. The cells were then exposed to drugs at a concentration of 10 µM, while control wells received DMSO. Wound closure was observed and photographed using an optical microscope after 24 h. Images were analysed using ImageJ software (version 1.54j).

[5] = target: T1, CYP17A1; assay: CYP17A1 activity calculated as ratios of steroid products to substrates (LC-MS); assay type: cell-based; conditions: normalised to DMSO-treated cells (100%), NCI-H295R
Method: as §2
To provide deeper insights into CYP17A1 inhibition, the enzyme activity was calculated using ratios of steroid products to substrates, focusing on dual activities of CYP17A1 (Figure 4(B)).

[6] = target: T1, CYP17A1; assay: CYP17A1 17,20-lyase activity assay in NCI-H295R cells (tritiated water release); assay type: cell-based; conditions: dose-response, read-out: IC50, inhibition of 17,20-lyase activity
[7] = test system: VCaP cells; assay: Alamar blue (resazurin) cell viability, VCaP; assay type: cell-based, human; conditions: Homo sapiens, VCaP, 24 h
Method: (§3) LNCaP and RWPE-1 cells were plated in 96-well plates at 10 000 cells per well and incubated overnight at 37 °C with 5% CO2. VCaP cells were plated at 12 000 cells per well under the same conditions. After 24 h, the medium was replaced with fresh medium containing the compounds or abiraterone at a final concentration of 10 µM. Cells were incubated for an additional 24 and 48 h. Cell viability was measured using the Alamar Blue assay. Post-incubation, 0.05 mg/mL Alamar Blue solution in phosphate-buffered saline (PBS) was added to each well. The plates were incubated in the dark at 37 °C for 4 h, and fluorescence was measured at an excitation wavelength of 550 nm and an emission wavelength of 590 nm. Cell viability was calculated relative to control sample treated with DMSO. All experiments were conducted in triplicate.

[8] = test system: LNCaP cells; assay: Alamar blue (resazurin) cell viability, LNCaP; assay type: cell-based, human; conditions: 10 µM; for Effect on LNCaP cell viability (in words): 48 h
Method: as §3

CCCn1nnc2cc(-c3cc(-c4ccncc4)c(C#N)c(N)n3)ccc21 [Compound 1, 2-Amino-6–(1-propyl-1H-benzo[d][1,2,3]triazol-5-yl)-[4,4′-bipyridine]-3-carbonitrile]
remaining activity at 10 µM [1]: 46.3% | remaining activity at 10 µM [2]: 45% | Androsterone, Mean [3]: 0 nmol/L | Testosterone, Mean [3]: 0.4455 nmol/L | Progesterone, Mean [3]: 27.8235 nmol/L | Androstendione, Mean [3]: 1.564 nmol/L | 17a-Hydroxyprogesterone, Mean [3]: 0.977 nmol/L | DHEA, Mean [3]: 1.1015 nmol/L | 11-Deoxycortisol, Mean [3]: 5.22 nmol/L | 11-Deoxycorticosterone, Mean [3]: 41.58 nmol/L and 41.577 nmol/L | Pregnenolone, Mean [3]: 2228.179 nmol/L | Cortisone, Mean [3]: 0 nmol/L | DHEA-S, Mean [3]: 0 nmol/L | Dihydrotestosterone, Mean [3]: 0 nmol/L | Wound area, Mean (area remaining open) [4]: 731.5 Pixels^2 | Effect on cell migration (in words) [4]: less pronounced effect comparable to that exerted by abiraterone | 17α-Hydroxylase activity (ratios of steroid products to substrates) [5]: 1.8% | Combined 17α-hydroxylase and 17,20-lyase activity (ratios of steroid products to substrates) [5]: 6.6% | IC50 [6]: 10 nM

N#Cc1c(-c2ccccc2)cc(-c2ccccc2)nc1N [Compound 2, 2-Amino-4,6-diphenylnicotinonitrile]
remaining activity at 10 µM [1]: 93.7% | remaining activity at 10 µM [2]: 67%

N#Cc1c(-c2ccccc2)cc(-c2cccnc2)nc1N [Compound 3, 6-Amino-4-phenyl-[2,3′-bipyridine]-5-carbonitrile]
remaining activity at 10 µM [1]: 94.7% | remaining activity at 10 µM [2]: 84%

N#Cc1c(-c2cccnc2)cc(-c2ccccc2)nc1N [Compound 4, 2′-Amino-6′-phenyl-[3,4′-bipyridine]-3′-carbonitrile]
remaining activity at 10 µM [1]: 68.5% | remaining activity at 10 µM [2]: 71%

N#Cc1c(-c2ccccc2)cc(-c2ccncc2)c(C#N)c1N [Compound 6, 3-Amino-5-(pyridin-4-yl)-[1,1′-biphenyl]-2,4-dicarbonitrile]
remaining activity at 10 µM [1]: 57.4% | remaining activity at 10 µM [2]: 53% | viability at 10 µM [7]: < 50% | Cytotoxic effect on LNCaP cells (in words) ([8]; 24 and 48 h): marked reduction in viability

N#Cc1c(-c2cccnc2)cc(-c2cccnc2)c(C#N)c1N [Compound 7, 2-Amino-4,6-di(pyridin-3-yl)isophthalonitrile]
remaining activity at 10 µM [1]: 113% | remaining activity at 10 µM [2]: 96%

N#Cc1c(-c2ccncc2)cc(-c2ccncc2)c(C#N)c1N [Compound 8, 2-Amino-4,6-di(pyridin-4-yl)isophthalonitrile]
remaining activity at 10 µM [1]: 84.8% | remaining activity at 10 µM [2]: 103%

N#Cc1c(-c2ccncc2)cc(-c2cccnc2)c(C#N)c1N [Compound 9, 2-Amino-4-(pyridin-3-yl)-6-(pyridin-4-yl)isophthalonitrile]
remaining activity at 10 µM [1]: 66.8% | remaining activity at 10 µM [2]: 63%

CCCn1nnc2cc(-c3cc(-c4ccncc4)c(C#N)c(N)c3C#N)ccc21 [Compound 10, 2-Amino-4–(1-propyl-1H-benzo[d][1,2,3]triazol-5-yl)-6-(pyridin-4-yl)isophthalonitrile]
remaining activity at 10 µM [1]: 58.2% | remaining activity at 10 µM [2]: 32%

c1cncc(-c2ccc(-c3ccc4[nH]ccc4c3)cc2)c1 [Compound 13, 5-(4-(Pyridin-3-yl)phenyl)-1H-indole]
remaining activity at 10 µM [1]: 93.5% | remaining activity at 10 µM [2]: 76%

c1cc(-c2ccncc2)cc(-c2ccc3[nH]ccc3c2)c1 [Compound 14, 5-(3-(Pyridin-4-yl)phenyl)-1H-indole]
remaining activity at 10 µM [1]: 23.9% | remaining activity at 10 µM [2]: 35% | Androsterone, Mean [3]: 0.61 nmol/L | Testosterone, Mean [3]: 0.4105 nmol/L | Progesterone, Mean [3]: 51.7765 nmol/L | Androstendione, Mean [3]: 1.359 nmol/L | 17a-Hydroxyprogesterone, Mean [3]: 1.6245 nmol/L | DHEA, Mean [3]: 0.6075 nmol/L | 11-Deoxycortisol, Mean [3]: 3.75 nmol/L and 3.7485 nmol/L | 11-Deoxycorticosterone, Mean [3]: 3.518 nmol/L | Pregnenolone, Mean [3]: 2377.463 nmol/L | Cortisone, Mean [3]: 0 nmol/L | DHEA-S, Mean [3]: 0 nmol/L | Dihydrotestosterone, Mean [3]: 0 nmol/L | Wound area, Mean (area remaining open) [4]: 7074 Pixels^2 | Effect on cell migration (in words) [4]: significant inhibition of cell migration | 17α-Hydroxylase activity (ratios of steroid products to substrates) [5]: 1.5% | IC50 [6]: 26 nM | Effect on LNCaP cell viability (in words) [8]: strong effect

c1cc(-c2ccc(-c3ccc4[nH]ccc4c3)cc2)ccn1 [Compound 15, 5-(4-(Pyridin-4-yl)phenyl)-1H-indole]
remaining activity at 10 µM [1]: 57.3% | remaining activity at 10 µM [2]: 87% | Effect on LNCaP cell viability (in words) [8]: strong effect
